In PubChem BioAssay AID720646 (Broad Institute, 2013):
Active and inactive are the calls of the source.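 The calls were made as follows: active = fitted rise in melting shift crosses a set limit at or below the top valid dose tested; inconclusive = flat fit at mid-level activity, or a poor quality fit; inactive = the rest.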

The compounds below were run against Fibroblast growth factor 22 (Homo sapiens) (UniProt Q9HCT0) (assay: binders of human FGF22 protein, dose response, FGF22 synaptogenesis inhibitor project, biophysical, thermal shift, cherry-pick retest (AID 720646)). Details: recombinant FGF22 thermal shift, SYPRO orange fluorescence.
Sequence of Fibroblast growth factor 22 (Homo sapiens) (Q9HCT0 whole entry, looked up): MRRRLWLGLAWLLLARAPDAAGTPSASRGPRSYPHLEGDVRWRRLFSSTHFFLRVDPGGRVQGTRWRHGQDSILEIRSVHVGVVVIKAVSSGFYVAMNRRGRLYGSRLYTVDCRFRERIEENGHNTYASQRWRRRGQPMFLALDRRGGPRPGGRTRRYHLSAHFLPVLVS

Compound	AC
CC1([N+](=O)[O-])COP(=O)(NC2CC2)OC1 (centres undefined)	21.5 µM
Cc1ccc(NC(=O)c2ccc(OCc3c(C)noc3C)cc2)c(C)c1	34.2 µM
Cn1c(=O)c2c(-c3ccccc3)n(-c3cc(Cl)c([N+](=O)[O-])cc3O)cc2n(C)c1=O	28.3 µM
N#Cc1ccc(NC(=O)Nc2cccc(C#N)c2)cc1	30.1 µM
CC(=O)Nc1cccc(C(=O)N/N=C/c2c[nH]c3ccccc23)c1	13.7 µM
COc1ccc(/C=N/Nc2ccc([N+](=O)[O-])cc2)cc1O	36.6 µM
O=C(O)c1[nH]c2ccc(Br)cc2c1CCN1C(=O)c2cccc([N+](=O)[O-])c2C1=O	> 38 µM (inactive)
COc1ccc(N2CCN(CCOc3ccc4c(C)cc(=O)oc4c3)CC2)cc1	> 38 µM (inactive)
Nc1nnc(CC(=O)N/N=C/c2cc([N+](=O)[O-])cc(Br)c2O)s1	24.7 µM
COc1ccc(NC(=O)CCCN2C(=O)CN(C)C2=O)c(OC)c1	> 38 µM (inactive)
CC(C)c1c(C(=O)N/N=C/c2c[nH]c3ccccc23)nnn1-c1nonc1N	27.4 µM
O=C(CC1SC(=O)NC1=O)Nc1ccc(Cl)cc1 (centres undefined)	33.2 µM
CC1C=NC(S(=O)(=O)N2CC[C@@H]3[C@@H](CO)N(C)c4ccc(-c5ccc(F)cc5)cc4[C@@H]32)=N1 (some centres undefined)	> 38 µM (inactive)
Cc1cc(C)cc(NC(=O)CN2C(=O)NC(Cc3c[nH]c4ccccc34)C2=O)c1 (centres undefined)	> 38 µM (inactive)
Cc1onc(-c2ccccc2)c1C(=O)Nc1ncc([N+](=O)[O-])s1	34 µM
O=C(N[C@H]1C=C[C@H](CC(=O)N2CCCCC2)O[C@H]1CO)c1cccc(F)c1	35.5 µM
CC1(C(=O)NS(=O)(=O)Cc2cccc(Cl)c2)CCN1C(=O)C1(c2ccc(Cl)cc2)CCC1 (centres undefined)	24.4 µM

Compound	AC
O=C(N/N=C/c1c[nH]c2ccccc12)c1cccs1	23.4 µM
O=C(Nc1ccc(S(=O)(=O)N2CCOCC2)cc1)c1ccc(F)cc1	> 38 µM (inactive)
Cc1[nH]c2ccc(C(=O)OCC(=O)Nc3cccc(S(N)(=O)=O)c3)cc2c1C	10.1 µM
CCC(=O)Nc1nc(C)c(-c2csc(Nc3ccccn3)n2)s1	21.6 µM
NC(=O)c1ccsc1NC(=O)COC(=O)Cc1c[nH]c2ccccc12	27.6 µM
CSc1ccc(/C=N/NC(=O)c2ccc3nc[nH]c3c2)cc1	37.7 µM
COC(=O)C(C)Oc1cc(OC(C)C(=O)OC)c2c(C)c(Cl)c(=O)oc2c1 (centres undefined)	> 38 µM (inactive)
CCC(CC)CN1CCC(CN2C(=O)C(=O)NC[C@@H]2CC(C)C)CC1	> 38 µM (inactive)
O=C(N/N=C/c1c[nH]c2ccccc12)c1cccc(Cl)c1	27.9 µM
C[C@@H]1CN([C@H](C)CO)C(=O)Cc2cc(N(C)C)ccc2O[C@@H]1CN(C)Cc1ccc(Cl)c(Cl)c1	37.3 µM
CNC[C@H]1Oc2ccc(NC(=O)Cc3cn(C)c4ccccc34)cc2C(=O)N([C@H](C)CO)C[C@H]1C	> 42 µM (inactive)
O=C(N/N=C\c1c[nH]c2ccccc12)c1ccc(O)cc1	16.8 µM
O=S(=O)(Nc1nnc(C(F)(F)F)s1)c1ccc(Cl)cc1	37.5 µM
O=S1(=O)N=C(N(Cc2cccs2)c2ccc(O)cc2)c2ccccc21	20.4 µM
O=C(Cc1n[nH]c(=O)[nH]c1=O)N/N=C/c1c(O)ccc2ccccc12	> 38 µM (inactive)
Cc1cc(C(=O)N/N=C/c2c[nH]c3ccccc23)cs1	30.3 µM
C[C@@H]1CN([C@@H](C)CO)S(=O)(=O)c2ccc(-c3cccc(C#N)c3)cc2O[C@@H]1CN(C)C(=O)Nc1cc(F)ccc1F	> 38 µM (inactive)
